Reference: patent US20150330992A1, “RAPID DISCOVERY AND SCREENING OF ENZYME ACTIVITY USING MASS SPECTROMETRY” (THE REGENTS OF THE UNIVERSITY OF CALIFORNIA, priority 2012, published 2015)
Read-outs that look alike come from different tables or passages of the source.

What was measured:
cytochrome P450BM3 = molecular target: T1, cytochrome P450BM3 (Priestia megaterium, UniProt P14779); test: Whole-cell PECAN detection of cytochrome P450BM3 activity; assay type: cell-based, E. coli; conditions: 2 mM probe, 30° C., 16 h; versus GFP control
T1 construct: expressed in transfected cells; host or cells: E. coli liquid culture in terrific broth with d-aminolevulinic acid
T1 sequence (P14779 whole entry): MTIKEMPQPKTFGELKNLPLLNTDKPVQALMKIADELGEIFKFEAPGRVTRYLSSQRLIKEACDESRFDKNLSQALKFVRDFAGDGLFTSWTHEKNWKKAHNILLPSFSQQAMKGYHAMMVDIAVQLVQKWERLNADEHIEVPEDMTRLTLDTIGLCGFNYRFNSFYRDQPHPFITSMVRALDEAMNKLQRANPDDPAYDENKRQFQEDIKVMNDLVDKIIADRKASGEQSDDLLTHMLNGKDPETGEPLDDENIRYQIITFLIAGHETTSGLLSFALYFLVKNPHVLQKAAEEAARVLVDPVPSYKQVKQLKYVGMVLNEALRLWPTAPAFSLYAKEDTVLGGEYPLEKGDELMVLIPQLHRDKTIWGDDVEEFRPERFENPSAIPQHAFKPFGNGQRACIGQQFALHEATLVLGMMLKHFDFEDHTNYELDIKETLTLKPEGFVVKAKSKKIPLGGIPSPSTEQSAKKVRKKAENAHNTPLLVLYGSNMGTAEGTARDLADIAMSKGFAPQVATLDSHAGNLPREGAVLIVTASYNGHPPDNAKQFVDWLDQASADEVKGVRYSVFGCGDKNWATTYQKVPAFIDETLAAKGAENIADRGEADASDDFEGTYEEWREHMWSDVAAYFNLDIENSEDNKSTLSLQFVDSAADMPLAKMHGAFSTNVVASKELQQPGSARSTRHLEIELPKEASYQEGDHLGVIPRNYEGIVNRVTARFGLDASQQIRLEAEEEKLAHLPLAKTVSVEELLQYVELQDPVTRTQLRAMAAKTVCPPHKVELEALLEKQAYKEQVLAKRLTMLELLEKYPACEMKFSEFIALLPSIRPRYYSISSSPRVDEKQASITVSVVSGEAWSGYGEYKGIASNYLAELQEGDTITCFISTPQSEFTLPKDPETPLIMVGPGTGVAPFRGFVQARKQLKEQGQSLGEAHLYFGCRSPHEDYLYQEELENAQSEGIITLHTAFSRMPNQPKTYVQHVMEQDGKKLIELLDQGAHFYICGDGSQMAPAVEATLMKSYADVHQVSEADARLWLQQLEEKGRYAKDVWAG
Procedure: The CAEE PECAN probe was used to detect cytochrome P450BM3 activity in whole E. coli cell culture expressing cytochrome P450BM3 using NIMS technology. To 5 mL of E. coli liquid culture in teriffic broth supplemented with 0.5 mM d-aminolevulinic acid, expressing either GFP or cytochrome P450BM3, was added the CAEE PECAN probe to a final concentration of 2 mM and DMSO to a final concentration of 2%. The bacterial cultures were shaken in baffled borosilicate culture tubes at 30° C. for 16 h and quenched with an equal volume of methanol. 5 uL, of this mixture was then mixed with 5 uL, of click reaction solution [50 mM Tris(3-hydroxypropyltriazolylinethyl)amine (THPTA), 50 mM sodium ascorbate, 10 mM copper sulfate and 0.5 mM PECAN tag Nz-NPrg (structure shown below) in 50:50 water:methanol] and left to react overnight. NIMS analysis was performed as described above.

[1] = molecular target: T2, chloramphenicol acetyltransferase (CAT) (Escherichia coli, UniProt P62577); test: PECAN detection of CAT activity in whole E. coli cell culture; assay type: cell-based; set-up: expressed in transfected cells; host or cells: E. coli DH1 harboring pBbB8k-CAT, arabinose-induced, sonicated lysate; conditions: whole cell culture without exogenous cofactors, 2 mM probe, 1 h
T2 sequence (P62577 whole entry, looked up): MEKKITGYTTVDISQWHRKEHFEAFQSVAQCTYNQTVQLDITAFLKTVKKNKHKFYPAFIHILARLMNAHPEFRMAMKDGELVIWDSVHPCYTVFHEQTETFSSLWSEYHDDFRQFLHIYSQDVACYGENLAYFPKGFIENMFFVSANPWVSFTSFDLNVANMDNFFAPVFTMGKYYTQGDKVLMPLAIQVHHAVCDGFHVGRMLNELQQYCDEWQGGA
Procedure: For the detection of CAT activity in E. coli cell culture, to 5 mL, of E. coli culture in LB medium expressing either GFP or CAT was added the ChlorHexy PECAN probe to a final concentration of 2 mM. The bacterial cultures were shaken at 37° C. for 1 h and quenched with an equal volume of methanol. 5 uL of this mixture was then mixed with 5 ul, of click reaction solution (recipe described above) and left to react overnight. NIMS analysis was performed as described above.
In FIG. 25, the 42-mass unit shift relative to the GFP control was the mass of a single acetyl group attached to the probe.

[2] = molecular target: T2, chloramphenicol acetyltransferase (CAT); test: PECAN detection of CAT activity in E. coli cell lysate; assay type: biochemical; set-up: expressed in transfected cells; host or cells: E. coli DH1 harboring pBbB8k-CAT, arabinose-induced, sonicated lysate; conditions: cell lysate with added acetyl-CoA, 2 mM probe
Procedure: Acetyl-CoA was added to a final concentration of 5 mM and the ChlorHexy PECAN probe to a final concentration of 2 mM. […] 5 uL, of the mixture was then mixed with 5 uL of click reaction solution [50 mM Tris(3-hydroxypropyltriazolylmethyl)amine (THPTA), 50 mM sodium ascorbate, 10 mM copper sulfate and 0.5 mM PECAN tag Nz-N3 (structure shown below) in 50:50 water:methanol] and left to react overnight. […] The spotted area was washed with 2×1 μL deionized water and NIMS spectra were obtained.

[3] = system: Alicycyclobacillus acidocaldarius β-glucosidase; test: Steady-state kinetic analysis of β-glucosidase with varied cellobiose by oxime-NIMS; assay type: biochemical; conditions: 95% confidence level, r^2=0.997
Procedure: A velocity versus substrate concentration analysis was used to determine the kinetic parameters for β-glucosidase (Aa-βG) from the thermoacidophilic bacterium Alicycyclobacillus acidocaldarius 22 using pure cellobiose as substrate. The experimental data were analyzed using the NonlinearModelFit routine of Mathematic v.8 (Wolfram Research) and v=kcat [S]/(KM+[S]) (kcat, KM, and [S] have their usual definitions).
Glucose formed at different time points from the reaction of Alicycyclobacillus acidocaldarius β-glucosidase with varied cellobiose concentration was quantified and used for steady-state kinetic analysis. The data were analysed using the NonlinearModelFit routine of Mathematic v.8 and v=kcat [S]/(KM+[S]), where kcat, KM, and [S] have their usual definitions.

[4] = system: Alicycyclobacillus acidocaldarius β-glucosidase; conditions: lacking error analysis; read-out: KM, previously reported; cited from earlier work
[5] = molecular target: T2, chloramphenicol acetyltransferase (CAT); conditions: 0.5 mM probe, 2 mM acetyl-CoA, 5 minutes; versus control lysate
Procedure: Enzymatic activity assay—Overnight cultures of E. coli DH1 harboring either pBbB8k-GFP or pBbB8k-CAT were diluted 1:10 in LB with 50 μg mL^−1 kanamycin, and grown for 1 hour at 37° C., after which they were induced with 0.2% (w/v) arabinose. After 2 hours of growth, 0.5 mL of the culture was centrifuged at ˜12000×g for 1 minute, the pellet was resuspended in 0.25 mL aqueous 50 mM sodium phosphate (pH 7.5) and sonicated for 30 seconds. Acetyl-CoA was added to a final concentration of 2 mM and 11 to a final concentration of 0.5 mM. The mixture was mixed and incubated at room temperature for 5 minutes, and subsequently quenched with an equal volume of methanol. A 0.3 μL droplet of the mixture was spotted onto a NIMS chip, and the excess liquid removed 5 seconds later by touching it with a Kimwipe (Kimberly-Clark). The spotted area was washed twice with 1 μL deionized water. The NIMS chip was taped to a modified standard MALDI plate, which was then loaded into an Applied Biosystems 4800 MALDI time of flight (TOF)//TOF mass spectrometer. […] Spectra were acquired in manual mode and positive polarity.

Compound: [N-]=[N+]=NCCOC(=O)C1=CCCCC1 [CAEE, cyclohexenecarboxylate azidoethyl ester]
- conversion of probe by cytochrome P450BM3 (NIMS mass shift) (cytochrome P450BM3): 16-mass unit shift relative to the GFP control

Compound: C#CCCCC(=O)N[C@H](CO)[C@H](O)c1ccc([N+](=O)[O-])cc1 [ChlorHexy, chloramphenicol 5-hexynamide]
- CAT activity detected with probe [1]: CAT activity was detected
- CAT activity detected with probe [2]: CAT activity was detected

Compound: O=C[C@H](O)[C@@H](O)[C@H](O[C@@H]1O[C@H](CO)[C@@H](O)[C@H](O)[C@H]1O)[C@H](O)CO [cellobiose]
- Km [3]: 12.1 ± 4.6 mM
- kcat [3]: 1430 ± 850 s⁻¹
- Km [4]: ~10 mM

Compound: (1R,2R)-N-Nz-1-(4-nitrophenyl)propane-1,3-diol [Compound 11]
- conversion of probe by CAT (NIMS mass shift) [5]: the peak shifts by 42 mass units, as expected from monoacetylation
